# Reference: ChEMBL document CHEMBL2331232, “Α-mangostin and gambogic acid as potential inhibitors of the p53-MDM2 interaction revealed by a yeast approach” (J Nat Prod, 2013)
# The source made the active and inactive calls. No cut-off for these calls is given here.
# How the values were obtained:
# [1] = test system: Cellular tumor antigen p53 (Homo sapiens), P04637 [R280K]; experiment: Inhibition of human p53 R280K mutant expressed in Saccharomyces cerevisiae CG379 assessed as effect on cell growth at 10 uM after 31 hrs
# [2] = target: E3 ubiquitin-protein ligase Mdm2 (Homo sapiens) (UniProt Q00987); experiment: Inhibition of human MDM2 expressed in Saccharomyces cerevisiae CG379 assessed as effect on cell cycle arrest at 1 to 100 uM after 42 hrs
# E3 ubiquitin-protein ligase Mdm2 (Homo sapiens), sequence (Q00987 whole entry, looked up): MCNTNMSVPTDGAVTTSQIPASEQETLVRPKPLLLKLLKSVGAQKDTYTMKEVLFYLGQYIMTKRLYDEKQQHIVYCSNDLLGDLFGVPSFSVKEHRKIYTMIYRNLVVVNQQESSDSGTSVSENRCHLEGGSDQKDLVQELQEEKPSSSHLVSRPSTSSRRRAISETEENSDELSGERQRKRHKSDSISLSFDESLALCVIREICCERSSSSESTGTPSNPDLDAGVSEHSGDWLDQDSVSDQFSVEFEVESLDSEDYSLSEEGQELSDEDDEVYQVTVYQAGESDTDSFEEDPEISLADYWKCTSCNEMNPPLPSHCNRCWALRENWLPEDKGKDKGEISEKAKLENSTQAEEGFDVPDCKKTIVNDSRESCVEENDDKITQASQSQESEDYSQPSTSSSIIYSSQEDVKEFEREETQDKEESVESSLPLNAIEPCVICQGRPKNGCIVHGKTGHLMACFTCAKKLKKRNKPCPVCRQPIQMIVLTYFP
# [3] = target: Cellular tumor antigen p53 (Homo sapiens) (UniProt P04637); experiment: Inhibition of human p53 expressed in Saccharomyces cerevisiae CG379 assessed as effect on cell growth at 1 to 100 uM after 42 hrs
# Cellular tumor antigen p53 (Homo sapiens), sequence (P04637 whole entry, looked up): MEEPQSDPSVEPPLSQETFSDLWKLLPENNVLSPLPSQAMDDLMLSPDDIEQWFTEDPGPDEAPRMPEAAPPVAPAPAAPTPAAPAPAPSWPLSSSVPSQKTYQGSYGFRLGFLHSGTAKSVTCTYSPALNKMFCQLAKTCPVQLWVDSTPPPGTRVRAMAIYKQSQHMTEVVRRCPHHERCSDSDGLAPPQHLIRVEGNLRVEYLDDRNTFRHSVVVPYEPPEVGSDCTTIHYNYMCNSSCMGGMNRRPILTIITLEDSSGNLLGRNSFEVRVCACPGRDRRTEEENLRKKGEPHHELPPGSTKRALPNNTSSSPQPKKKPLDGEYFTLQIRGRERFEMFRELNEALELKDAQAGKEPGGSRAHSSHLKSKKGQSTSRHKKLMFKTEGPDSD
# [4] = target: Cellular tumor antigen p53 (Homo sapiens) (UniProt P04637); experiment: Inhibition of human p53 expressed in Saccharomyces cerevisiae CG379 assessed as effect on cell cycle arrest at 1 to 100 uM after 42 hrs
SMILES,inhibition [1],inhibition [2],inhibition [3],inhibition [4]
COc1c(O)cc2oc3cc(O)c(CC=C(C)C)c(O)c3c(=O)c2c1CC=C(C)C,inactive,inactive,inactive,inactive
CC(C)=CCC[C@]1(C)C=Cc2c(O)c3c(c(CC=C(C)C)c2O1)O[C@]12C(=C[C@@H]4C[C@H]1C(C)(C)O[C@@]2(C/C=C(/C)C(=O)O)C4=O)C3=O,inactive,Active,inactive,inactive
